This note sets out measurements from patent US12473274B2, “Heterocyclic compound as inhibitor of casein kinase 1-δ and/or activin receptor-like kinase 5” (Alchemedicine, Inc., priority 2020, dated 2025).

A value given as a limit tells only on which side of the number the result lay.

Common to all, as to type: biochemical
The target in experiment [1] is T1, human p38α (Homo sapiens, UniProt Q16539).
T1 construct: GST (N); made in house; host or cells: E. coli
Nature of the experiment: Test Example 1: p38α inhibition action (mobility shift, LabChip). The note with it: Modified Erktide 1 μM, ATP 150 μM, Mg 5 mM, 1 hour room temperature. The procedure: (§1) Evaluation of CK1δ Inhibitory Activity and p38α Inhibition Action
(§2) 1. Preparation of Solution of Test Substance
(§3) A test substance was dissolved in dimethyl sulfoxide (DMSO). The solution was further diluted with DMSO to prepare a solution at a concentration 100-fold greater than the test concentration. The solution was further 25-fold diluted with an assay buffer to prepare a solution of the test substance. The positive control substance was also treated as above to prepare a solution of the positive control substance.
(§4) 2. Preparation of Kinase Protein
p38α: Used was the human p38α prepared as followed: GST (66 KDa) was fused with the N-terminal of the 9-352 amino acid sequence site in accession number NP_620581.1, followed by expression in E. coli and then refining by a glutathione sepharose chromatography system, and the product was activated with His-tagged MAP2K6, and was again purified by the glutathione sepharose chromatography system.
(§5) 3. Reagent and Test Method
(§6) 5 μL of a 4-fold solution of the test substance prepared with an assay buffer (20 mM HEPES, 0.01% Triton X-100, 2 mM DTT, pH: 7.5), 5 μL of a 4-fold substrate/ATP/metal solution, and 10 μL of a 2-fold kinase solution were mixed in wells of a 384-well plate made of polypropylene, and were reacted at room temperature for 1 hour. 70 μL of Termination Buffer (QuickScout Screening Assist MSA; Carna Biosciences) was added to terminate the reaction. The substrate peptide and phosphorylated peptide in the reaction solution were separated by a LabChip system (Perkin Elmer), and were quantitated. The kinase reaction was evaluated based on the product ratio (P/(P+S)) calculated from the substrate peptide peak height (S) and the phosphorylated peptide peak height (P).
(§7) The average signal from control wells containing all the reaction components was defined as 0% inhibition, and the average signal from background wells (enzyme not added) was defined as 100% inhibition. The inhibition rate was calculated from the average signal of test wells containing each test substance. The IC50 value was determined through approximation of the plot against the test substance concentration and the inhibition rate to a 4-parameter logistic curve by non-linear least squares. The compounds in Examples had good CK1δ inhibition activity. A large difference was found between the CK1δ inhibition concentration and the p38α inhibition concentration.

The target of experiment [2] is T2, ALK5 (Homo sapiens, UniProt P36897).
T2 sequence (P36897 34-503): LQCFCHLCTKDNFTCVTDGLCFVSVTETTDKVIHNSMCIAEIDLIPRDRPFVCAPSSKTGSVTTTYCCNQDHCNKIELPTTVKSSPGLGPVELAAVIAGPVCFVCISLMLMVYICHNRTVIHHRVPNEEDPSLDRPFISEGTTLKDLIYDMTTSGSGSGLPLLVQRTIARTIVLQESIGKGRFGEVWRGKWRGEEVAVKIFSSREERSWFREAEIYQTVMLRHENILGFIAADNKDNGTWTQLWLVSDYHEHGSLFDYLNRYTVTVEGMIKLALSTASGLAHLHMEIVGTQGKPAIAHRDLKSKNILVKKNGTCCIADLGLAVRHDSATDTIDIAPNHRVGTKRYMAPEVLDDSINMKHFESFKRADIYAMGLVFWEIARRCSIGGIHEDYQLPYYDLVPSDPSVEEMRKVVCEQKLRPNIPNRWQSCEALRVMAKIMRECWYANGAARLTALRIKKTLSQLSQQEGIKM
Nature of the experiment: Test Example 2: ALK5 inhibition action (ADP-Glo kinase assay). The method, then: (§8) Evaluation of ALK5 Inhibition Action
as §2
A 10% DMSO stock solution (compound concentration: 10 mM) containing 0.1 mg/mL BSA (bovine serum albumin) was prepared as a solution of the test substance.
3. Reagent, Test Method, and Reaction Conditions
A kinase assay was performed using ADP-Glo™ assay kit available from Promega Corporation according to the following assay reaction recipe: • Component 1: 1 μL diluted active protein kinase • Component 2: 1 μL of the substrate • Component 3: 1 μL kinase assay buffer • Component 4: 1 μL of the compound (10 concentrations) or 10% DMSO • Component 5: 1 μL ATP stock (25 μM final well concentration)
The assay started with incubation of the reaction mixture in a 384-well plate at room temperature for 40 minutes. After the incubation, 5 μL ADP-Glo™ reagent was added. The plate was shaken, followed by incubation at room temperature for 40 minutes. […] The plate was measured on a GloMax plate reader using ADP-Glo™ Luminescence Protocol. […] The corrected activity value was calculated by subtracting the value of the blank control from the measured value.
The relative luminescence unit (RLU) was measured at 10 compound concentrations between 0.3 nM and 10,000 nM. The inhibition rate was calculated as follows: {(Control RLU−Test RLU)/(Control RLU−Background RLU)}×100 […]
On the technique in general: In ADP-Glo the light output rises with the ADP produced.

Experiment [3] has as its target T3, human CK1δ (Homo sapiens, UniProt P48730).
T3 construct: GST (N); made in house; host or cells: E. coli
T3 sequence (P48730 1-294): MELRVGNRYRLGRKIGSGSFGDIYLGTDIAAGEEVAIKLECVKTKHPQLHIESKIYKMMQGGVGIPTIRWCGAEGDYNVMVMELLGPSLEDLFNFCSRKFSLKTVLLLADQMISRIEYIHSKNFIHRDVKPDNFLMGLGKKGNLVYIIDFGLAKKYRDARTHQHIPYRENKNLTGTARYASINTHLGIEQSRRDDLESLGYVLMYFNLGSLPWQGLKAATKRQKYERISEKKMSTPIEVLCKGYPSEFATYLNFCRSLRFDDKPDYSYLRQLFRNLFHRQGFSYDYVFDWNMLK
Nature of the experiment: Test Example 1: CK1δ inhibitory activity (mobility shift, LabChip). As to conditions: for IC50: CKtide 1 μM, ATP 10 μM, Mg 5 mM, 1 hour room temperature; for Ratio (p38α/CK1δ): ratio of p38α IC50 to CK1δ IC50, Test Example 1. The procedure: as §1, §2, §3, §4
CK1δ: Used was the human CK1δ prepared by fusing GST (61 KDa) with the N-terminal of the human CK1δ enzyme activity domain (1-294 amino acid sequence site in accession number NP_001884.2), followed by expression in E. coli and then refining by a glutathione sepharose chromatography system.
as §5, §6, §7

Experiment [4] deals with T2, ALK5. Nature of the experiment: Test Example 3: ALK5 inhibition action (ADP-Glo, SignalChem enzyme). More on the design: GST; purchased SignalChem T07-11G. The note with it: enzyme 5 ng/μL, TGFBR1 Peptide 200 ng/μL, ATP 25 μM, 2 hours. The procedure: as §8
Using a human recombinant GST-tagged TGFB available from SignalChem (Catalog No. T07-11G), a substrate peptide TGFBR1 Peptide (Catalog No. T36-58), and ADP-Glo assay kit (Promega Corporation), measurement was performed on a 5-μL reaction system in a 384-well plate (GloMax plate reader) according to the document attached to the ADP-Glo assay kit. For the reaction conditions used, the enzyme concentration was 5 ng/μL, the substrate concentration was 200 ng/μL, the ATP concentration was 25 μM, and the reaction time was 2 hours. The IC50 value was calculated using GraphPad Prism version 5.01 based on the inhibition rate where the test substance (8 to 10 concentrations, diluted 3-fold from 3000 nM) was added.

In experiment [5] the target is T4, human recombinant GST-tagged p38α (Homo sapiens, UniProt Q16539).
T4 construct: GST; purchased SignalChem M39-10 BG
T4 sequence (Q16539 whole entry): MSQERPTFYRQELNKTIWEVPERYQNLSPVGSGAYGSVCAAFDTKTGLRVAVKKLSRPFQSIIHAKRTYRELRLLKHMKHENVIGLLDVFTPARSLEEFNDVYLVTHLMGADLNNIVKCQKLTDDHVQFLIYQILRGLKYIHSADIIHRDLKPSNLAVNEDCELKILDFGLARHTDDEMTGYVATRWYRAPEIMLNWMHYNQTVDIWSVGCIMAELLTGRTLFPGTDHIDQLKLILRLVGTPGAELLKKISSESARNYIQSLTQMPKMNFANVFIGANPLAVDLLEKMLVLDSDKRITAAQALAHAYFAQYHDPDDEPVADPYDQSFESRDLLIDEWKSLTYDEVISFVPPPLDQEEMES
Nature of the experiment: Test Example 5: p38α inhibition action (ADP-Glo, SignalChem enzyme). As to conditions: enzyme 2 ng/μL, p38 Substrate 100 ng/μL, ATP 25 μM, 40 minutes. The procedure:
Evaluation of p38α Inhibition Action
(§9) Using a human recombinant GST-tagged p38α available from SignalChem (Catalog No. M39-10 BG), a substrate peptide p38 Substrate (Catalog No. P03-58), and ADP-Glo assay kit (Promega Corporation), measurement was performed on a 5-μL reaction system in a 384-well plate (GloMax plate reader) according to the document attached to the ADP-Glo assay kit. For the reaction conditions used, the enzyme concentration was 2 ng/μL, the substrate concentration was 100 ng/μL, the ATP concentration was 25 μM, and the reaction time was 40 minutes. The IC50 value was calculated using GraphPad Prism version 5.01 based on the inhibition rate where the test substance (8 to 10 concentrations, diluted 3-fold from 3000 nM) was added.

The target of experiment [6] is T5, human recombinant GST-tagged CK1δ (Homo sapiens, UniProt P48730).
T5 construct: GST; purchased SignalChem C65-10G
T5 sequence (P48730 whole entry): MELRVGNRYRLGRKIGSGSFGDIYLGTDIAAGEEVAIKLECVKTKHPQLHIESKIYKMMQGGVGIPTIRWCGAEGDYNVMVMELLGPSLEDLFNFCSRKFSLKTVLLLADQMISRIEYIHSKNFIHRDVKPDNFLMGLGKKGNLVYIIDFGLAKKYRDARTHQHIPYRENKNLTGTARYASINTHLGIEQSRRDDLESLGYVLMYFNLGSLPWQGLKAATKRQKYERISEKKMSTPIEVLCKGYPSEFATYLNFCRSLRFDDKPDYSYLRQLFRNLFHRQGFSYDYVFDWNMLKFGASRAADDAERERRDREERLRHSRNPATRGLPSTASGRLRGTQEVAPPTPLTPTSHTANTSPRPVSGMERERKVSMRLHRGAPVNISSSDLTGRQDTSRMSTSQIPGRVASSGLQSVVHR
Nature of the experiment: Test Example 4: CK1δ inhibition action (ADP-Glo, SignalChem enzyme). The note with it: enzyme 2 ng/μL, Casein Dephosphorylated 200 ng/μL, ATP 25 μM, 40 minutes. The method, then: Evaluation of CK1δ Inhibition Action
as §9, with “CK1δ” for “p38α”, “C65-10G),” for “M39-10 BG),”, “Casein Dephosphorylated” for “p38 Substrate”, “C03-54BN),” for “P03-58),”, “200” for “100”

T1 sequence (Q16539 9-352): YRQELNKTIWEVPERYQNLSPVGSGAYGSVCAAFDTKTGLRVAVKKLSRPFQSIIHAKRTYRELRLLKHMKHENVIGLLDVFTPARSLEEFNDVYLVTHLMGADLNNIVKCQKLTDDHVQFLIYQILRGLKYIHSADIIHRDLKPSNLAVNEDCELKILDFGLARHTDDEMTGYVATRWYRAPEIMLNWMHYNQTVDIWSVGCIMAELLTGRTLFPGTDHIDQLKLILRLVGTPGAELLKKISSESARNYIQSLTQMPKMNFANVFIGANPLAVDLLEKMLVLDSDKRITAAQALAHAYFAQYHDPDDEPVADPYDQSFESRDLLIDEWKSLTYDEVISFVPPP

For the compound `c1ccc(-c2[nH]cnc2-c2ccc3c(c2)COC3)nc1` [Example 1, 2-(4-(1,3-Dihydroisobenzofuran-5-yl)-1H-imidazol-5-yl)pyridine], the concentration for half-maximal inhibition (IC50) in experiment [1] was 4 µM; in experiment [2] (ATP 25 μM, 40 minutes, 10 concentrations 0.3-10,000 nM), 31 nM; in experiment [3], 21 nM. Besides, the “ALK5 inhibition activity (in words)” value in experiment [2] (Test Example 2, comment on Table 3) is listed as “good ALK5 inhibition activity”. Besides, the “Ratio (p38α/CK1δ)” value in experiment [3] turned out to be 190.
In the case of `Cc1nc(-c2ccc3c(c2)COC3)c(-c2ccccn2)[nH]1` [Example 2, 2-(4-(1,3-Dihydroisobenzofuran-5-yl)-2-methyl-1H-imidazol-5-yl)pyridine], the IC50 in experiment [1] is above 10 µM; in experiment [3] it was 68 nM. Moreover, the “Ratio (p38α/CK1δ)” value in experiment [3] is reported as above 150.
For `Fc1ccc(-c2[nH]cnc2-c2ccc3c(c2)COC3)nc1` [Example 3, 2-(4-(1,3-Dihydroisobenzofuran-5-yl)-1H-imidazol-5-yl)-5-fluoropyridine] the same measures were 4.4 µM, 48 nM and 92.
For the compound `Cc1cccc(-c2[nH]cnc2-c2ccc3c(c2)COC3)n1` [Example 4, 2-(4-(1,3-Dihydroisobenzofuran-5-yl)-1H-imidazol-5-yl)-6-methylpyridine], the IC50 in experiment [1] is 5.2 µM; in experiment [4] it was 46 nM; in experiment [3], 110 nM. The “Ratio (p38α/CK1δ)” value in experiment [3] turned out to be 47.
For `c1ccc(-c2[nH]c(C3CC3)nc2-c2ccc3c(c2)COC3)nc1` [Example 5, 2-(2-Cyclopropyl-4-(1,3-dihydroisobenzofuran-5-yl)-1H-imidazol-5-yl)pyridine], the IC50 in experiment [5] was above 3 µM; in experiment [4] it was 330 nM; in experiment [6] it was 200 nM.

Usually IC50 stands for the concentration needed to halve the response being measured.
